Consider 18 molecules from patent publication US8574563B2 (Bristol-Myers Squibb Company, priority 2006, dated 2013).

In this assay the test system is HCV 1b-377-neo replicon cells. In words: HCV replicon assay, HCV 1b-377-neo replicon cells (1b FRET). As to conditions: Hepatitis C virus, HCV 1b-377-neo replicon cells; HCV 1b genotype; read-out: EC50 range against HCV 1b (Table 2, Range). It is filed as cell-based, Hepatitis C virus genotype 1b. In outline: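 FRET-based replicon assay in HCV 1b-377-neo cells, including a comparison line carrying the NS5A Y2065H mutation that confers resistance to a reference compound.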
The EC50 is the concentration at which the effect is half-maximal. `CN(C)[C@@H](C(=O)N1CCC[C@H]1c1ncc(-c2ccc(-c3ccc(-c4cnc([C@@H]5CCCN5C(=O)C5(C)CCN(C(=O)OC(C)(C)C)CC5)[nH]4)cc3)cc2)[nH]1)c1ccccc1` [Example 94-12, tert-butyl 4-(((2S)-2-(5-(4′-(2-((2S)-1-((2R)-2-(dimethylamino)-2-phenylacetyl)-2-pyrrolidinyl)-1H-imidazol-5-yl)-4-biphenylyl)-1H-imidazol-2-yl)-1-pyrrolidinyl)carbonyl)-4-methyl-1-piperidinecarboxylate]: the EC50 fell in the range of 1 to 99 nM.

As for `COC(=O)Cc1[nH]c([C@@H]2CCCN2C(=O)[C@@H](NC(=O)OC)[C@@H](C)OC)nc1-c1ccc(-c2ccc(-c3cnc([C@@H]4CCCN4C(=O)[C@@H](NC(=O)OC)[C@@H](C)OC)[nH]3)cc2)cc1` [Example J14b, methyl (2-((2S)-1-(N-(methoxycarbonyl)-O-methyl-L-threonyl)-2-pyrrolidinyl)-4-(4′-(2-((2S)-1-(N-(methoxycarbonyl)-O-methyl-L-threonyl)-2-pyrrolidinyl)-1H-imidazol-4-yl)-4-biphenylyl)-1H-imidazol-5-yl)acetate], the concentration giving a half-maximal response (EC50) was 0.001 to 0.999 nM.

Regarding `CC(C)(C)OC(=O)N1CCC(C(=O)N2CCC[C@H]2c2ncc(-c3ccc(-c4ccc(-c5cnc([C@@H]6CCCN6C(=O)[C@@H](c6ccccc6)N6CCCCC6)[nH]5)cc4)cc3)[nH]2)CC1` [Example 107-9, tert-butyl 4-(((2S)-2-(5-(4′-(2-((2S)-1-((2R)-2-phenyl-2-(1-piperidinyl)acetyl)-2-pyrrolidinyl)-1H-imidazol-5-yl)-4-biphenylyl)-1H-imidazol-2-yl)-1-pyrrolidinyl)carbonyl)-1-piperidinecarboxylate], the EC50 is 0.001 to 0.999 nM.

Regarding `COC(=O)N[C@@H](C(=O)N1CCC[C@H]1c1ncc(-c2ccc(-c3ccc(-c4cnc([C@@H]5CCCN5C(=O)C5CN(C(=O)OC(C)(C)C)C5)[nH]4)cc3)cc2)[nH]1)c1ccccc1` [Example 84-27, tert-butyl 3-(((2S)-2-(5-(4′-(2-((2S)-1-((2R)-2-((methoxycarbonyl)amino)-2-phenylacetyl)-2-pyrrolidinyl)-1H-imidazol-5-yl)-4-biphenylyl)-1H-imidazol-2-yl)-1-pyrrolidinyl)carbonyl)-1-azetidinecarboxylate], the EC50 was 0.001 to 0.999 nM.

As to `C[C@@H](c1ncc(-c2ccc(-c3ccc(-c4cnc([C@@H]5CCCN5C(=O)[C@@H](c5ccccc5)N(C)C)[nH]4)cc3)cc2)[nH]1)N(C)C(=O)[C@@H](c1ccccc1)N(C)C` [Example 24-18-5, (2R)-2-(dimethylamino)-N-((1S)-1-(5-(4′-(2-((2S)-1-((2R)-2-(dimethylamino)-2-phenylacetyl)-2-pyrrolidinyl)-1H-imidazol-5-yl)-4-biphenylyl)-1H-imidazol-2-yl)ethyl)-N-methyl-2-phenylacetamide], the EC50 lay in the range of 0.001 to 0.999 nM.

On to `COC(=O)N[C@@H](Cc1cscn1)C(=O)N1CCC[C@H]1c1ncc(-c2ccc(-c3ccc(-c4cnc([C@@H]5CCCN5C(=O)[C@@H](NC(=O)OC)[C@@H](C)OC)[nH]4)cc3)cc2)[nH]1` [cj-78, methyl ((1S)-2-((2S)-2-(5-(4′-(2-((2S)-1-((2S,3R)-3-methoxy-2-((methoxycarbonyl)amino)butanoyl)-2-pyrrolidinyl)-1H-imidazol-5-yl)-4-biphenylyl)-1H-imidazol-2-yl)-1-pyrrolidinyl)-2-oxo-1-(1,3-thiazol-4-ylmethyl)ethyl)carbamate], for which the EC50 lay in the range of 0.001 to 0.999 nM.

`CCN(CC)[C@@H](C)C(=O)N1CCC[C@H]1c1ncc(-c2ccc(-c3ccc(-c4cnc([C@@H]5CCCN5C(=O)[C@@H](c5ccccc5)N(CC)CC)[nH]4)cc3)cc2)[nH]1` [Example M36, (2S)-1-((2S)-2-(5-(4′-(2-((2S)-1-((2R)-2-(diethylamino)-2-phenylacetyl)-2-pyrrolidinyl)-1H-imidazol-5-yl)-4-biphenylyl)-1H-imidazol-2-yl)-1-pyrrolidinyl)-N,N-diethyl-1-oxo-2-propanamine]: the EC50 lay in the range of 1 to 99 nM.

As for `O=C([C@@H](c1ccccc1)N1CCCCC1)N1CC(F)(F)C[C@H]1c1nc(-c2ccc(-c3ccc(-c4cnc([C@@H]5CC(F)(F)CN5C(=O)[C@@H](c5ccccc5)N5CCCCC5)[nH]4)cc3)cc2)c[nH]1` [Example 24-8, 1,1′-(4,4′-biphenyldiylbis(1H-imidazol-4,2-diyl((2S)-4,4-difluoro-2,1-pyrrolidinediyl)((1R)-2-oxo-1-phenyl-2,1-ethanediyl)))dipiperidine], the concentration giving a half-maximal response (EC50) was 0.001 to 0.999 nM.

For the molecule `COC(=O)N[C@H](C(=O)N1CCC[C@H]1c1ncc(-c2ccc(-c3ccc(-c4cnc([C@@H]5CCCN5C(=O)[C@H]5CC[C@H](NC(=O)OC)CC5)[nH]4)cc3)cc2)[nH]1)C(C)C` [cj-70, methyl ((1S)-1-(((2S)-2-(5-(4′-(2-((2S)-1-((trans-4-((methoxycarbonyl)amino)cyclohexyl)carbonyl)-2-pyrrolidinyl)-1H-imidazol-5-yl)-4-biphenylyl)-1H-imidazol-2-yl)-1-pyrrolidinyl)carbonyl)-2-methylpropyl)carbamate], the EC50 is 0.001 to 0.999 nM.

Regarding `COC(=O)N[C@@H](C(=O)N1CCC[C@H]1c1ncc(-c2ccc(-c3ccc(-c4cnc([C@@H]5CCCN5C(=O)[C@H]5CCCC[C@H]5NC(=O)OC)[nH]4)cc3)cc2)[nH]1)c1ccccc1` [cj-95, methyl ((1R)-2-((2S)-2-(5-(4′-(2-((2S)-1-(((1S,2R)-2-((methoxycarbonyl)amino)cyclohexyl)carbonyl)-2-pyrrolidinyl)-1H-imidazol-5-yl)-4-biphenylyl)-1H-imidazol-2-yl)-1-pyrrolidinyl)-2-oxo-1-phenylethyl)carbamate], the EC50 is 0.001 to 0.999 nM.

Turning to `C[C@H](NS(C)(=O)=O)C(=O)N1CCC[C@H]1c1nc(-c2ccc(-c3ccc(-c4cnc([C@@H]5CCCN5C(=O)[C@H](C)NS(C)(=O)=O)[nH]4)cc3)cc2)c[nH]1` [Example F69, N-((1S)-1-methyl-2-((2S)-2-(5-(4′-(2-((2S)-1-(N-(methylsulfonyl)-L-alanyl)-2-pyrrolidinyl)-1H-imidazol-4-yl)-4-biphenylyl)-1H-imidazol-2-yl)-1-pyrrolidinyl)-2-oxoethyl)methanesulfonamide], the EC50 fell in the range of 100 to 999 nM.

Regarding `COC(=O)N[C@H](C(=O)N1C[C@H](O)C[C@H]1c1ncc(-c2ccc(-c3ccc(-c4cnc([C@@H]5C[C@@H](O)CN5C(=O)[C@@H](NC(=O)OC)C5CC5)[nH]4)cc3)cc2)[nH]1)C1CC1` [JG-6, dimethyl (4,4′-biphenyldiylbis(1H-imidazole-5,2-diyl((2S,4R)-4-hydroxy-2,1-pyrrolidinediyl)((1S)-1-cyclopropyl-2-oxo-2,1-ethanediyl)))biscarbamate], the EC50 fell in the range of 1 to 99 nM.

On to `CN(C)[C@@H](C(=O)N1CCC[C@H]1c1ncc(-c2ccc(-c3ccc(-c4cnc([C@@H]5CCCN5C(=O)[C@@H](c5ccccc5)N5CCCCC5)[nH]4)cc3)cc2)[nH]1)c1ccccc1Cl` [Example 28-4, (1R)-1-(2-chlorophenyl)-N,N-dimethyl-2-oxo-2-((2S)-2-(5-(4′-(2-((2S)-1-((2R)-2-phenyl-2-(1-piperidinyl)acetyl)-2-pyrrolidinyl)-1H-imidazol-5-yl)-4-biphenylyl)-1H-imidazol-2-yl)-1-pyrrolidinyl)ethanamine], for which the EC50 lay in the range of 0.001 to 0.999 nM.

On to `CCN(CC)[C@H]1CC[C@@H](C(=O)N2CCC[C@H]2c2ncc(-c3ccc(-c4ccc(-c5cnc([C@@H]6CCCN6C(=O)[C@@H](NC(=O)OC)C(C)C)[nH]5)cc4)cc3)[nH]2)CC1` [cj-71, methyl ((1S)-1-(((2S)-2-(5-(4′-(2-((2S)-1-((cis-4-(diethylamino)cyclohexyl)carbonyl)-2-pyrrolidinyl)-1H-imidazol-5-yl)-4-biphenylyl)-1H-imidazol-2-yl)-1-pyrrolidinyl)carbonyl)-2-methylpropyl)carbamate], for which the EC50 lay within 0.001 to 0.999 nM.

Take `COC(=O)N[C@@H](C)C(=O)N1CCC[C@H]1c1ncc(-c2ccc(-c3ccc(-c4cnc([C@@H]5CCCN5C(=O)[C@H]5CCC[C@@H]5NC(=O)OC)[nH]4)cc3)cc2)[nH]1` [cj-118, methyl ((1S,2S)-2-(((2S)-2-(5-(4′-(2-((2S)-1-(N-(methoxycarbonyl)-L-alanyl)-2-pyrrolidinyl)-1H-imidazol-5-yl)-4-biphenylyl)-1H-imidazol-2-yl)-1-pyrrolidinyl)carbonyl)cyclopentyl)carbamate]: the EC50 lay in the range of 0.001 to 0.999 nM.

Take `CCN(CC)[C@@H](C(=O)N1CCC[C@H]1c1ncc(-c2ccc(-c3ccc(-c4cnc([C@@H]5CCCN5C(=O)[C@@H]5CCN5C(=O)OC)[nH]4)cc3)cc2)[nH]1)c1ccccc1` [cj-50, methyl (2S)-2-(((2S)-2-(5-(4′-(2-((2S)-1-((2R)-2-(diethylamino)-2-phenylacetyl)-2-pyrrolidinyl)-1H-imidazol-5-yl)-4-biphenylyl)-1H-imidazol-2-yl)-1-pyrrolidinyl)carbonyl)-1-azetidinecarboxylate]: the EC50 lay within 0.001 to 0.999 nM.

On to `COC(=O)N[C@@H](Cc1ccccc1)C(=O)N1CCC[C@H]1c1ncc(-c2ccc(-c3ccc(-c4cnc([C@@H]5CCCN5C(=O)[C@H](Cc5ccccc5)NC(=O)OC)[nH]4)cc3)cc2)[nH]1` [cj-148, methyl ((1S)-1-benzyl-2-((2S)-2-(5-(4′-(2-((2S)-1-((2S)-2-((methoxycarbonyl)amino)-3-phenylpropanoyl)-2-pyrrolidinyl)-1H-imidazol-5-yl)-4-biphenylyl)-1H-imidazol-2-yl)-1-pyrrolidinyl)-2-oxoethyl)carbamate], for which the half-maximal effective concentration (EC50) is 1 to 99 nM.

For the molecule `O=C(C(c1ccccc1)N1CCC(O)CC1)N1CCC[C@H]1c1ncc(-c2ccc(-c3ccc(-c4cnc([C@@H]5CCCN5C(=O)[C@@H](c5ccccc5)N5CCCC5)[nH]4)cc3)cc2)[nH]1` (stereo partly drawn) [Example 97, 1-(2-oxo-1-phenyl-2-((2S)-2-(5-(4′-(2-((2S)-1-((2R)-2-phenyl-2-(1-pyrrolidinyl)acetyl)-2-pyrrolidinyl)-1H-imidazol-5-yl)-4-biphenylyl)-1H-imidazol-2-yl)-1-pyrrolidinyl)ethyl)-4-piperidinol], the EC50 lay within 0.001 to 0.999 nM.
